# Where two headings read alike, the source gives them in different places.
# Test: Solubility of polymerizable fluorine-containing sulfonic acid onium salts (polymerizable monomers) in PGMEA
# Assay type: physicochemical
# Description: The structures and abbreviations of the polymerizable monomers used in this reference example are indicated below. Among others, the monomers PAG-1, PAG-2 and PAG-3 are the polymerizable fluorine-containing sulfonic acid onium salts according to the present invention. [table]
# [1] = amount of polymerizable monomer in 100 g of PGMEA
Solubility (g/100 g) [1],SMILES,Solubility (g/100 g)
–,"C=C(C)C(=O)OC(OCC(F)(F)S(=O)(=O)O)(C(=O)OCC)C(F)(F)F (centres unmarked) [PAG-1, Triphenylsulfonium 2-(1-Ethoxycarbonyl-1-methacryloyloxy-2,2,2-trifluoroethoxy)-1,1-difluoroethanesulfonate]",45 g/100 g
–,"C=C(C)C(=O)OC(OCCC(F)(F)C(F)(F)S(=O)(=O)O)(C(=O)OCC)C(F)(F)F (centres unmarked) [PAG-2, Triphenylsulfonium 4-(1-Ethoxycarbonyl-1-methacryloyloxy-2,2,2-trifluoroethoxy)-1,1,2,2-tetrafluorobutanesulfonate]",55 g/100 g
–,"C=C(C)C(=O)OC(OCCCCC(F)(F)C(F)(F)S(=O)(=O)O)(C(=O)OCC)C(F)(F)F (centres unmarked) [PAG-3, Triphenylsulfonium 6-(1-Ethoxycarbonyl-1-methacryloyloxy-2,2,2-trifluoroethoxy)-1,1,2,2-tetrafluorohexanesulfonate]",90 g/100 g
10 g/100 g,"C=C(C)C(=O)OCC(F)(F)S(=O)(=O)O [PAG-C1, reference compound]",–
11 g/100 g,"C=C(C)C(=O)OCC(=O)OCC(F)(F)S(=O)(=O)O [PAG-C2, reference compound]",–

# Reference: US9182664B2, “Polymerizable fluorine-containing sulfonate, fluorine-containing sulfonate resin, resist composition and pattern-forming method using same” (Central Glass Company, Limited, priority 2010, dated 2015)
